Test results from US9814731B2, “Method for the induction of phase 2 related genes in a mammal comprising administering exemestane” (THE JOHNS HOPKINS UNIVERSITY, priority 2013, dated 2017).

Assays:
iNOS [1] = assay: LPS-activated iNOS (NO production, Griess reaction) in RAW264.7 cells; assay type: cell-based, murine; conditions: for IC50: Mus musculus, RAW264.7, 10 ng/ml LPS, 48 h, read-out: IC50 of NO generation; for inhibition of LPS-stimulated NO production: RAW264.7, up to 20 μM
Procedure: RAW264.7 cells (20,000 per well) in 96-well plates, were grown for 24 hours, and exposed to serial dilutions of exemestane in the presence of 10 ng/ml LPS. […] The nitrite values of cells treated with LPS but without test compounds were used as controls.

iNOS [2] = assay: LPS-activated iNOS (NO production) in wild-type mouse peritoneal macrophages; assay type: cell-based; conditions: Peritoneal macrophage, single agent, 100 ng/ml LPS, 24 hours, read-out: concentration required for 50% inhibition of LPS-stimulated nitric oxide generation
Procedure: (§1) Nrf2−/− mice on C57BL/6 background were initially established by Itoh et al. WT C57BL/6 mice were purchased from The Jackson Laboratory. Macrophages were harvested by lavage from the peritoneal cavity with DPBS 4 days after an i.p. injection of thioglycolate broth (Brewer, 4%). Isolated cells were plated into 96-well plates at a density of 10^5 cells per well in RPMI 1640 medium containing 2 mM Lglutamine, 10% heat-inactivated FBS, 100 U/ml […]. After 3 hours of incubation at 37° C. in 5% CO2. nonmacrophage cells were washed away with DPBS. The remaining macrophages were exposed immediately to serial dilutions of exemestane, sulforaphane or a combination of both compounds in the presence of 100 ng/ml LPS, and incubated for 24 hours before measurement of iNOS.
(§2) RAW264.7 cells (20,000 per well) in 96-well plates, were grown for 24 hours, and exposed to serial dilutions of exemestane in the presence of 10 ng/ml LPS. After 48-hour incubation, nitrite concentration in culture supernatant fractions of RAW264.7 cells or mouse peritoneal macrophages, measured as an indicator of iNOS induction, was determined by the Griess reaction (Cancer Res 58: 717-723 (1998), Proc Natl Acad Sci USA 105: 15926-15931 (2008)). The nitrite values of cells treated with LPS but without test compounds were used as controls.

NQO1 [3] = assay: NQO1 assay in murine 308 keratinocytes; assay type: cell-based; conditions: 308 cells, 48 hours exposure
Procedure: (§3) Cells (10,000 per well) were grown in 96-well plates for 24 hours, then exposed to serial dilutions of inducers for 48 hours, and lysed in 0.08% digitonin. Enzymatic activity of NQ01 in cell lysates was determined with menadione as a substrate (Anal Biochem 169: 328-336 (1988), Methods Enzymol 382(B): 243-258 (2004)). The concentrations required to double the specific activity of NQO1 (CD values) were used to quantify inducer potency.

NQO1 [4] = assay: NQO1 assay in rat H9c2 myocardiocytes; assay type: cell-based; conditions: H9c2 cells, 48 hours exposure
Procedure: as §3

NQO1 [5] = assay: NQO1 assay in human retinal pigment epithelial ARPE-19 cells; assay type: cell-based; conditions: 48 hours exposure
Procedure: as §3

NQO1 [6] = assay: NQO1 assay in murine hepatoma Hepa1c1c7 cells; assay type: cell-based; conditions: for CD value (concentration required to double the specific activity of NQO1): 48 hours exposure; for inducer activity for NQO1: concentrations up to 20 μM
Procedure: as §3

NQO1 [7] = assay: NQO1 assay in wild-type MEF; assay type: cell-based, mouse; conditions: 48 hours
Procedure: as §3

NQO1 [8] = assay: NQO1 assay in Nrf2-knockout MEF; assay type: cell-based, mouse; conditions: 48 hours
Procedure: as §3

RAW264.7 cells = assay: Cytotoxicity in RAW264.7 cells; assay type: cell-based, murine; conditions: RAW264.7, 20 μM
Hepa1c1c7 cells = assay: Cytotoxicity in Hepa1c1c7 cells; assay type: cell-based, murine; conditions: 20 μM
308 keratinocytes = assay: UVA-stimulated ROS production in murine 308 keratinocytes; assay type: cell-based; conditions: 24 hours pretreatment, 5 or 10 J/cm^2 UVA
Procedure: (§4) ARPE-19 or MEF cells (10,000 per well) in 96-well plates (black-walled wells with clear bottom) were treated with serial dilutions of exemestane for 24 hours, and then incubated with 20 μM H2DCFDA for 30 minutes (Chem Res Toxicol 5: 227-231(1992)). After washing with Dulbecco's phosphate-buffered saline (DPBS) twice, the cells were challenged with 500 μM tert-butyl hydroperoxide for 30 minutes, and fluorescence intensity was measured in SpectraMax GeminiEM plate reader (Molecular Devices) with excitation at 485 nm and emission at 530 nm. Murine 308 keratinocytes (40,000 per well) were plated in 24-well plates and grown for 24 hours. Medium was then replaced with medium containing different concentrations of exemestane (0, 2, 4, 8 μM). After further incubation for 24 hours, cells were incubated with 20 μM H2DCFDA for 30 minutes, washed twice with DPBS twice and exposed to 5 or 10 J/cm^2 UVA (340-400 nm). Immediately after UVA irradiation, fluorescence intensity was measured by a microplate reader.

[9] = system: Hepa1c1c7, ARPE-19, 308 and H9c2 cells; assay: Cytotoxicity in all cell lines of the NQO1 assay (Hepa1c1c7, ARPE-19, 308, H9c2); assay type: cell-based; conditions: up to 20 μM, the highest concentration tested
breast cancer = conditions: 4560 women at moderately increased risk for developing breast cancer; cited from earlier work
heme oxygenase-1 (HO-1) = assay: Real-time PCR of HO-1 mRNA in H9c2 cells; assay type: cell-based, rat; conditions: 10 μM, 6 hours
Procedure: (§5) Total mRNA from cells was extracted with TRIzol reagent (Invitrogen, Carlsbad, Calif.). […] was synthesized by the iScript cDNA Synthesis Kit (Bio-Rad Laboratories, Inc., Hercules, Calif.). Quantitative real-time PCR analysis was performed using the 7000 Sequence Detection System (Applied Biosystems, Foster City, Calif.). All primers were optimized and a final primer concentration of 300 nM was used for all reactions. Primer sequences for gene amplification were as follows: NAD(P)H: quinone oxidoreductase 1 (NQO1): fwd 5′-[…]-3′ (SEQ ID NO: 1), rev 5′-[…]-3′ (SEQ ID NO: 2); heme oxygenase-1 (HO-1): fwd 5′-[…]-3′ (SEQ ID NO: 3), rev 5′-[…]-3′ (SEQ ID NO: 4). (3-actin (endogenous control): fwd 5′-[…]-3′ (SEQ ID NO: 5), rev 5′-catcllllcacggttggcctta-3′ (SEQ ID NO: 6). The reactions were assembled using 5 ng of cDNA, 1× Power SYBR Green PCR Master Mix (Life Technologies), forward and reverse primers, and nuclease-free water. Relative mRNA expression was normalized to β-actin. Gene expression was calculated using the comparative 2^−ΔΔCT method.

NF-κB = assay: LPS-induced NF-κB luciferase reporter in U937 3×κB-LUC cells; assay type: cell-based, human; conditions: LPS 10 ng/ml; for effect on LPS-activated NF-κB by itself: 6 hours, exemestane up to 30 μM; for effect on the inhibitory effect of sulforaphane on NF-κB activation: combined with sulforaphane
Procedure: Human monocytic U937-3×κB-LUC cells were transferred to medium with 2% heat-inactivated FBS in 24-well plates (1×10^6 cells/well) and incubated overnight. Then cells were incubated with exemestane, sulforaphane, combination of both compounds, or vehicle control for 30 minutes, and exposed to LPS (10 ng/ml). After an additional 6-hour incubation, cells were harvested and NF-κB-driven luciferase activity was assayed according to the manufacturer's instructions (Promega, Madison, Wis.). Luciferase activity was normalized to total protein concentration to compensate for possible cell toxicity of the compounds.

Nrf2-/- MEF cells = assay: ROS in Nrf2-/- MEF challenged with tert-butyl hydroperoxide; assay type: cell-based, mouse; conditions: 24 hours pretreatment
Procedure: as §4

ARPE-19 cells [10] = assay: Intracellular ROS in ARPE-19 cells challenged with tert-butyl hydroperoxide; assay type: cell-based, human; conditions: ARPE-19, 24 hours pretreatment, 500 μM tert-butyl hydroperoxide
Procedure: as §4

ARPE-19 cells [11] = assay: Cytotoxicity of oxidative stresses in ARPE-19 cells (MTT); assay type: cell-based, human; conditions: ARPE-19, 24 hours pretreatment 0-20 μM
Procedure: (§6) ARPE-19 cells (10,000 cells/well) in 96-well plates were treated with serial dilutions of exemestane for 24 hours, and exposed to tert-butyl hydroperoxide or 4-hydroxynonenal in serum-free medium for 4 hours. The cells were then incubated in serum-free medium for additional 20 hours, washed with DPBS, and cell viability was determined using the colorimetric procedure based on the reduction of a water-soluble tetrazolium salt, 3-(4,5-dimethylthiazo-2-yl)-2,5-diphenyltetrazolium bromide (MTT). H9c2 cells (10,000 cells/well) in 96-well plates were treated with a range of concentrations of exemestane. After 24 hours, the cells were washed with DPBS, and exposed to 2 mM Na2S2O4 in serum-free medium for 1 hour. The cells were then washed with DPBS and incubated in complete medium containing 10% FBS for 24 hours, and then cell viability was measured by the MTT assay.

H9c2 cells = assay: Hypoxia/reoxygenation injury in H9c2 cardiomyocytes (MTT); assay type: cell-based, rat; conditions: H9c2, 24 hours pretreatment, 10 μM
Procedure: as §6

NQO1 [12] = assay: Real-time PCR of NQO1 mRNA in H9c2 cells; assay type: cell-based, rat; conditions: 10 μM, 6 hours
Procedure: as §5

NQO1 [13] = assay: NQO1 induction in mouse skin by topical application; assay type: in vivo, SKH-1 hairless mice; conditions: three applications at 24-hour intervals
Procedure: Eleven-month-old female SKH-1 hairless mice (n=5) purchased from Charles River Laboratories were treated three times at 24-hour intervals on the backs with 0, 1 and 2 μmol of exemestane dissolved in 80% aqueous acetone (40 μL) over about a 2.0 cm^2 area. Mice were euthanized 24 hours after the final dose. Each treated segment of the dorsal skin was harvested, pulverized in liquid N2, and homogenized in 10 volumes of 0.25 M sucrose in 10 mM Tris buffer (pH 7.4). After three freeze-thaw cycles, the homogenates were centrifuged at 14,000 rpm and 4° C. for 30 minutes, and the supernatant fractions were analyzed for protein concentration and NQO1 activity. All animal experiments were in compliance with National Institutes of Health Guidelines and were approved by The Johns Hopkins University Animal Care and Use Committee.

WT MEF cells = assay: ROS in wild-type MEF challenged with tert-butyl hydroperoxide; assay type: cell-based, mouse; conditions: 24 hours pretreatment
Procedure: as §4

iNOS [14] = assay: LPS-activated iNOS (NO production) in Nrf2-/- mouse peritoneal macrophages; assay type: cell-based; conditions: LPS 100 ng/ml, 24 hours
Procedure: as §1, §2

## C[S+]([O-])CCCCN=C=S (stereo not drawn) [sulforaphane, R,S-sulforaphane]
iNOS [1]
  IC50: 500 nM
iNOS [2]
  IC50: 1500 nM
NQO1 [3]
  CD value (concentration required to double the specific activity of NQO1): 0.2 µM
NQO1 [4]
  CD value (concentration required to double the specific activity of NQO1): 0.9 µM
NQO1 [5]
  CD value (concentration required to double the specific activity of NQO1): 0.7 µM
NQO1 [6]
  CD value (concentration required to double the specific activity of NQO1): 0.2 µM
NQO1 [7]
  NQO1 activity: dose-dependently induced NQO1 activity
NQO1 [8]
  NQO1 activity: not affected

## CC/C(=C(\c1ccccc1)c1ccc(OCCN(C)C)cc1)c1ccccc1 [tamoxifen]
iNOS [1]
  inhibition of LPS-stimulated NO production: did not inhibit
RAW264.7 cells
  cytotoxicity: 50%
NQO1 [6]
  inducer activity for NQO1: did not induce NQO1 activity
Hepa1c1c7 cells
  cytotoxicity: about 90%

## C=C1C[C@@H]2[C@H](CC[C@]3(C)C(=O)CC[C@@H]23)[C@@]2(C)C=CC(=O)C=C12 [Exemestane, 6-methyleneandrosta-1,4-diene-3,17-dione]
308 keratinocytes
  ROS in UVA-irradiated cells: dose-dependently led to the reduction of ROS
iNOS [1]
  IC50: 2500 nM
[9]
  cytotoxicity: no cytotoxicity
iNOS [2]
  IC50: 24200 nM
Breast cancer
  reduction of the risk of breast cancer relative to placebo: 65%
NQO1 [3]
  CD value (concentration required to double the specific activity of NQO1): 0.65 µM
Heme oxygenase-1 (HO-1)
  increase in mRNA levels of HO-1 over control cells: greater than 8 fold
NQO1 [4]
  CD value (concentration required to double the specific activity of NQO1): 2.9 µM
RAW264.7 cells
  toxicity: no toxicity
NF-κB
  effect on LPS-activated NF-κB by itself: no effect
  effect on the inhibitory effect of sulforaphane on NF-κB activation: dramatically enhanced
NQO1 [5]
  CD value (concentration required to double the specific activity of NQO1): 2.2 µM
NQO1 [6]
  CD value (concentration required to double the specific activity of NQO1): 0.65 µM
Nrf2-/- MEF cells
  protection against tert-butyl hydroperoxide-stimulated ROS: no protection
ARPE-19 cells [10]
  ROS production stimulated by tert-butyl hydroperoxide: suppressed ROS production
ARPE-19 cells [11]; oxidant 0.2, 0.4, 0.8 mM for 4 hours
  protection against cytotoxicity of tert-butyl hydroperoxide: protected against cytotoxicity
ARPE-19 cells [11]; oxidant 10, 20, 40 μM for 4 hours
  protection against cytotoxicity of 4-hydroxynonenal: protected against cytotoxicity
H9c2 cells
  cell viability after hypoxia/reoxygenation: almost totally restored cell viability
NQO1 [7]
  NQO1 activity: dose-dependently induced NQO1 activity
NQO1 [8]
  NQO1 activity: not affected
NQO1 [12]
  increase in NQO1 mRNA expression over control cells: 3 fold
NQO1 [13]; 0.5 μmol/cm^2 per application
  elevation of NQO1 activity in homogenates of skin: 1.3 fold
NQO1 [13]; 1.0 μmol/cm^2 per application
  elevation of NQO1 activity in homogenates of skin: 1.7 fold
WT MEF cells
  tert-butyl hydroperoxide-stimulated ROS levels: clearly suppressed
iNOS [14]
  inhibition of LPS-stimulated NO production in Nrf2-/- compared with WT macrophages: much less effective inhibitor

## N#Cc1ccc(C(c2ccc(C#N)cc2)n2cncn2)cc1 [letrozole]
iNOS [1]
  inhibition of LPS-stimulated NO production: did not inhibit
RAW264.7 cells
  toxicity: no toxicity
NF-κB
  effect on LPS-activated NF-κB by itself: no effect
  effect on the inhibitory effect of sulforaphane on NF-κB activation: did not enhance
NQO1 [6]
  inducer activity for NQO1: no inducer activity
